Measurements: patent US20110053849A1 (priority 2006, published 2011)

What was measured:
LITAF promoter = assay: Luciferase reporter assay of LITAF promoter activity in p53-null H1299 cells; assay type: cell-based, human; details: for Luciferase activity with peptide alone: peptide alone without pGLP700, FIG. 7 #5 and #6
Protocol: Luciferase assay. […] Cells were then incubated overnight in appropriate media (DMEM or RPMI 1640)+10% FBS at 37° C., in a humidified atmosphere containing 5% CO2. The β-galactosidase gene was included in all transfections. Cells were harvested and the luciferase activity of each lysate was measured (Turner Designs luminometer model TD-20/20) using a commercial kit (luciferase reporter assay system, Promega) according to the protocol provided by the manufacturer. Finally, the data were normalized to β-galactosidase expression.
The promoter activity of pGLP700 alone was assigned the maximal value of 100%. […] Deletions, indicated by ̂, correspond to aa 101-167 in construct A12, aa 167-234 in B1, aa 235-300 in C6 and aa 156-178 in D10. Construct p53LFB12 contained only 7 aa (KQSQHMT [SEQ ID NO: 1]) from the region (aa 164-170).
The proteins extracted from each transfection of construct plus pGLP700 compared to the transfection of pGLP700 alone in p53-null H1299 cells were measured by luciferase assay. Triplicate assays were performed. […] Construct C6, containing aa 167 and its flanking sequences, reduced LITAF promoter activity to 22% of control even though it lacked aa 235-300.
Furthermore, short peptides (pep12) that contain 7 residues (aa 164-170) (KQSQHMT [SEQ ID NO: 1]) corresponding to p53LFB12 and another peptide (pepSC) with reverse sequence of pep12 as a negative control, were synthesized and analyzed using the luciferase assay. Cultures of p53-null H1299 cells (5×10^6) were transfected with pGLP700 (#2-4, #7-12), pGLP550 (#13 and 14) or pGLP500 (#15 and 16) plus p53LFB12 (#4) or plus 12REV (#3) as control using Lipofactamine 2000 (Invitrogen) for 3 hours, washed with PBS and further transfected with peptide, 10 μg/ml (#10, 12, 14 and 16), then cells were incubated in appropriate medium at 37° C. overnight. Luciferase activities of the lysates from each culture of treated cells were measured. The extracts from untreated (#1), pepSC alone (#5), pep12 alone (#6), pGLP700 alone (#2 and 11, pGLP550 alone (#13) or pGLP500 alone (#15) were used as controls. Triplicate assays were performed.

TNF-α = assay: ELISA of LPS-induced TNF-α production in human monocytes; assay type: cell-based; details: 0.1 μg/ml E. coli LPS 3 hours, then peptide 16 hours, FIG. 8A
Protocol: ELISA. Human monocytes (1×10^6) were stimulated with 0.1 μg/ml E. coli LPS for 3 hrs, washed with PBS, then further treated with peptides by Chariot kit (Active Motif, Carlsbad, Calif.). Cells were then incubated overnight in RPMI 1640 medium supplemented with 10% FBS at 37° C., in a humidified atmosphere containing 5% CO2. Culture supernatants were harvested and centrifuged at 1,500×g to remove cell debris, then concentrations of human TNF-α in the supernatant of each treated or untreated control cell condition were measured by ELISA (Abraxis, Warminster, Pa.). The ELISA immunoreactivity was quantified using a VerSaDoc Imaging System (BIO-RAD) and graphed.
To further examine the effects of pep12 on LPS-induced LITAF gene expression and LITAF-dependent TNF-α production, analyses of Western blot and ELISA were performed. Human monocytes (1×10^6) were stimulated with 0.1 μg/ml E. coli LPS for 3 hours and washed with PBS prior to treatment with peptides for 16 hours with either pep12 (#5) or pepSC as control (#4) using a Chariot kit (Active motif, Carlsbad, Calif.) or transfected with no DNA (#1) or with pGLP700 DNA (#2) as negative controls or with p53-1 DNA (#3) as a positive control. […] The supernatants from cell cultures were measured by ELISA (Abraxis, Warminster, Pa.) and the extracts were detected by Western blot with antibodies against LITAF and actin (as a control).

LITAF = assay: Western blot of LPS-induced LITAF gene expression in human monocytes; assay type: cell-based; details: 0.1 μg/ml E. coli LPS 3 hours, then peptide 16 hours, FIG. 8B lane 5
Protocol: Western blot analysis. […] Cells were then incubated overnight in RPMI 1640 medium with 10% FBS at 37° C., in a humidified atmosphere containing 5% CO2. The proteins from the treated cells were extracted with lysis buffer (Promega) plus a cocktail of […] (Sigma) following the manufacturer's instructions and suspended in SDS sample buffer, heated at 95° C. for 5 min, then applied to SDS-polyacrylamide gels and detected by Western blotting.
To further examine the effects of pep12 on LPS-induced LITAF gene expression and LITAF-dependent TNF-α production, analyses of Western blot and ELISA were performed. Human monocytes (1×10^6) were stimulated with 0.1 μg/ml E. coli LPS for 3 hours and washed with PBS prior to treatment with peptides for 16 hours with either pep12 (#5) or pepSC as control (#4) using a Chariot kit (Active motif, Carlsbad, Calif.) or transfected with no DNA (#1) or with pGLP700 DNA (#2) as negative controls or with p53-1 DNA (#3) as a positive control. The cells were incubated in appropriate medium at 37° C., 5% CO2 overnight. The supernatants from cell cultures were measured by ELISA (Abraxis, Warminster, Pa.) and the extracts were detected by Western blot with antibodies against LITAF and actin (as a control).

human cytokines = assay: Bioplex human monocyte cytokine assay; assay type: cell-based; details: E. coli LPS + pep12 (10 µg or 100 υg)
Protocol: This assay was performed to determine the effectiveness of the peptide of the present invention [pep12: SEQ ID NO.: 1] to inhibit various human cytokines. The assay performed was a human monocyte assay well known to those practiced in the art. The kit used here (trade name Bioplex) was supplied by Bio-Rad (Hercules, Calif.). Other commercially available assays are known and suitable for use in the assay described here.
Bar (1) is the carrier solution alone (chariot alone); bar (2) is E. coli LPS stimulant; bar (3) is E. coli LPS+pepSC (scramble peptide); bar (4) is E. coli LPS+pep12 (10 υg); bar (5) is E. coli LPS+pep12 (100 υg). The cytokines tested include Human (Hu) IL-2, Hu Il-5, Hu Il-7, Hu Il-12 Hu Eotaxin, Hu Il-13, Hu-PDGF-β, Hu IL-1β, Hu-15, Hu IFN-γ, Hu IP-10, Hu IL-6, Hu RANTES, Hu TNF-α, Hu Il-1ra and Hu VEGF.

[1] = peptide 10 μg/ml plus pGLP700, FIG. 7 #7 and #10

| Substance | LITAF promoter activity (LITAF promoter; pep12 10 μg/ml plus pGLP500, FIG. 7 #16 vs #15) | LITAF promoter activity, % of control (LITAF promoter; pep12 10 μg/ml plus pGLP550, FIG. 7 #14 vs #13) | LITAF promoter activity, % of control (LITAF promoter; pep12 10 μg/ml plus pGLP700, FIG. 7 #12 vs #11) | LITAF promoter activity (untreated pGLP700 #2 = 100%) (LITAF promoter; peptide 0.1 μg/ml plus pGLP700, FIG. 7 #8) | LITAF promoter activity (untreated pGLP700 #2 = 100%) (LITAF promoter; [1]) | Luciferase activity with peptide alone (LITAF promoter) | LITAF promoter activity (untreated pGLP700 #2 = 100%) (LITAF promoter; peptide plus pGLP700, FIG. 7 #9, concentration not clearly printed) | LPS-induced TNF-α production, % of control (TNF-α) | LPS-induced LITAF gene expression (LITAF) | Concentration of active cytokine: Hu IL-13 (human cytokines) | Concentration of active cytokine: Hu PDGF-β (human cytokines) | Concentration of active cytokine: Hu RANTES (human cytokines) | Concentration of active cytokine: IL-2, IL-5, IL-7, IL-12, Eotaxin, IL-1β, IL-15, IFN-γ, IP-10, IL-6, TNF-α, IL-1ra, VEGF (human cytokines; FIGS. 9A-9C) |
| --- | --- | --- | --- | --- | --- | --- | --- | --- | --- | --- | --- | --- | --- |
| KQSQHMT [pep12] | did not affect LITAF promoter activity | 23% | 15% | 66% | 15% | 2.3% | 40% | ≤ 70% | inhibition of LPS-induced LITAF gene expression | only minor reductions | only minor reductions | only minor reductions | significant reduction |
| SKMQQTH [pepSC, reference compound] | – | – | – | – | 95% | 1.5% | – | could not affect LPS-induced TNF-α secretion | – | – | – | – | – |
